# Test results reported in patent publication US20090118286A1, “Heterobicyclic Acrylamides” (Bayer Cropscience AG, priority 2005, published 2009).
# Test: log P determination by HPLC (EEC Directive 79/831 Annex V.A8, gradient method)
# Format: physicochemical
# Conditions: not given
SMILES,Physical data: log P,Physical data (logP),Physical data: logP
O=C(O)/C=C/c1c(-c2ccccc2Cl)nc2scnn12 [VA112],–,1.84,–
CC(C)CNC(=O)/C=C/c1c(-c2ccccc2Cl)nc2sc(C(C)(C)C)nn12 [Example 0794],–,–,3.72
COCc1nn2c(/C=C/C(=O)Nc3ccc(C(F)(F)F)cc3)c(-c3ccccc3Cl)nc2s1 [Example 0835],–,–,3.99
CC(NC(=O)/C=C/c1c(-c2sccc2Cl)nc2sc(C(F)(F)F)nn12)C(F)(F)F (racemic) [Example 0922],–,–,3.65
CC(NC(=O)/C=C/c1c(-c2ccccc2Cl)nc2sc(C(F)(F)F)nn12)c1ccccc1 (racemic) [Example 0189],–,3.81,–
Cc1cn2c(/C=C/C(=O)NCC(C)(C)C)c(-c3ccccc3Cl)nc2s1 [Example 0863],–,–,2.89
O=Cc1c(-c2nccs2)nc2sc(C(F)(F)C(F)(F)F)nn12 [IVA114],–,3.03,–
CON(C)C(=O)/C=C/c1c(-c2cccc(C(F)(F)F)c2)nc2sc(C(F)(F)F)nn12 [Example 0433],4.01,–,–
Cc1ccccc1-c1nc2sc(C(F)(F)F)nn2c1/C=C/C(=O)NC(C)COc1ccccc1 (centres unmarked) [Example 0265],4.18,–,–
O=Cc1c(-c2ccc(OCc3ccccc3)cc2)nc2sc(C(F)(F)F)nn12 [IVA120],–,4.02,–
CC(ONC(=O)/C=C/c1c(-c2ccccc2Cl)nc2sc(C(F)(F)F)nn12)c1ccccc1 (racemic) [Example 0213],–,3.72,–
O=C(O)/C=C/c1c(-c2ccc(F)cc2Cl)nc2sc(C(F)(F)C(F)(F)C(F)(F)F)nn12 [VA135],–,3.75,–
CCN(C)C(=O)/C=C/c1c(-c2ccc(Cl)cc2Cl)nc2sc(C(F)(F)F)nn12 [Example 0569],3.82,–,–
COCc1nn2c(/C=C/C(=O)Nc3ccc(Cl)cc3)c(-c3ccccc3Cl)nc2s1 [Example 0833],–,–,3.87
O=C(C=Cc1c(-c2ccccc2Cl)nc2sc(C(F)(F)F)nn12)NC(c1ccc(Cl)cc1)C(F)(F)F (centres unmarked) [Example 0919],–,–,4.71
CC(C)NC(=O)/C=C/c1c(-c2cccnc2Cl)nc2sc(C(F)(F)F)nn12 [Example 0946],–,–,2.47
CCN(CC)C(=O)/C=C/c1c(-c2ccc(OC)c(OC)c2)nc2sc(C(F)(F)F)nn12 [Example 0716],–,–,3.53
CC(C)NC(=O)/C=C/c1c(-c2ccccc2Cl)nc2sc(-c3ccc(C(F)(F)F)cc3)nn12 [Example 0846],–,–,3.96

SMILES,Physical data: log P,Physical data (logP),Physical data: logP
CC(C)(C)c1nn2c(/C=C/C(=O)Nc3ccc(Cl)cc3)c(-c3ccccc3Cl)nc2s1 [Example 0811],–,–,4.72
CC(C)NC(=O)/C=C/c1c(-c2sccc2Cl)nc2sc(C(F)(F)F)nn12 [Example 0920],–,–,3.19
O=C(/C=C/c1c(-c2ccc(Cl)cc2Cl)nc2sc(C(F)(F)F)nn12)N1CCCCC1 [Example 0574],4.31,–,–
Cc1csc2nc(-c3ccccc3Cl)c(/C=C/C(=O)NCC(F)(F)F)n12 [Example 0888],–,–,2.36
O=Cc1c(-c2cncc(Br)c2)nc2sc(C(F)(F)F)nn12 [IVA115],–,2.62,–
CC(C)NC(=O)/C=C/c1c(-c2ccccc2Cl)nc2sc(C(F)(F)C(F)(F)F)nn12 [Example 0959],–,–,3.66
Cc1cn2c(/C=C/C(=O)NC3CC3)c(-c3ccccc3Cl)nc2s1 [Example 0873],–,–,2.02
CC(NC(=O)/C=C/c1c(-c2ccc(Cl)cc2Cl)nc2sc(C(F)(F)F)nn12)c1ccccn1 (centres unmarked) [Example 0555],2.84,–,–
CC(C)NC(=O)/C=C/c1c(-c2nccs2)nc2sc(C(F)(F)C(F)(F)F)nn12 [Example 0985],–,–,3.27
CCN(CC)C(=O)/C=C/c1c(-c2ccccc2C)nc2sc(C(F)(F)F)nn12 [Example 0292],3.75,–,–
CC(C)C(NC(=O)/C=C/c1c(-c2ccccc2Cl)nc2sc(C(C)(C)C)nn12)C(F)(F)F (centres unmarked) [Example 0796],–,–,4.46
CC(C)(C)c1nn2c(/C=C/C(=O)NC3CCCCC3)c(-c3ccccc3Cl)nc2s1 [Example 0810],–,–,3.79
O=C(/C=C/c1c(-c2ccccc2Cl)nc2sc(-c3ccc(C(F)(F)F)cc3)nn12)NC1CCCCC1 [Example 0854],–,–,4.76
CCN(C)C(=O)/C=C/c1c(-c2cccc(C(F)(F)F)c2)nc2sc(C(F)(F)F)nn12 [Example 0430],4.05,–,–
CC(C)NC(=O)/C=C/c1c(-c2ccccc2Cl)nc2sc(C(F)(F)F)cn12 [Example 0906],–,–,3.23
CC(NC(=O)/C=C/c1c(-c2ccccc2Cl)nc2sc(C(C)(C)C)nn12)C(F)(F)F (centres unmarked) [Example 0795],–,–,3.88
COCc1nn2c(/C=C/C(=O)NC3CCCCC3)c(-c3ccccc3Cl)nc2s1 [Example 0832],–,–,3.12
CCC(C)NC(=O)/C=C/c1c(-c2ccccc2Cl)nc2sc(C)cn12 (centres unmarked) [Example 0869],–,–,2.54

# The remaining lines, values ahead:
Physical data: log P,Physical data (logP),Physical data: logP,SMILES
3.07,–,–,COCC(C)NC(=O)/C=C/c1c(-c2ccc(F)cc2)nc2sc(C(F)(F)F)nn12 (centres unmarked) [Example 0311]
–,3.99,–,CCC(C)NC(=O)/C=C/c1c(-c2cccc(Cl)c2)nc2sc(C(F)(F)F)nn12 (centres unmarked) [Example 0087]
–,3.67,–,CC(C)NC(=O)/C=C/c1c(-c2cccc(Cl)c2)nc2sc(C(F)(F)F)nn12 [Example 0078]
2.91,–,–,O=C(/C=C/c1c(-c2ccc(F)cc2)nc2sc(C(F)(F)F)nn12)N1CCOCC1 [Example 0365]
–,–,2.64,COc1ccc(-c2nc3sc(C(F)(F)F)nn3c2/C=C/C(=O)NC2CC2)cc1OC [Example 0656]
–,3.77,–,O=C(O)/C=C/c1c(-c2ccc(-c3ccccc3)cc2)nc2sc(C(F)(F)F)nn12 [VA120]
–,4.22,–,O=C(O)/C=C/c1c(-c2ccc(Oc3ccc(Cl)cc3)cc2)nc2sc(C(F)(F)F)nn12 [VA124]
–,4.27,–,CCC(CC)NC(=O)/C=C/c1c(-c2cccc(Cl)c2)nc2sc(C(F)(F)F)nn12 [Example 0134]
–,4.51,–,CC(COc1ccccc1)NC(=O)/C=C/c1c(-c2ccc(Cl)cc2)nc2sc(C(F)(F)F)nn12 (centres unmarked) [Example 0043]
4.46,–,–,CC(C)C(C)NC(=O)/C=C/c1c(-c2cccc(C(F)(F)F)c2)nc2sc(C(F)(F)F)nn12 (centres unmarked) [Example 0387]
4.12,–,–,O=C(C=Cc1c(-c2ccc(F)cc2Cl)nc2sc(C(F)(F)F)nn12)NC1CCCCC1C(F)(F)F (centres unmarked) [Example 0600]
3.72,–,–,CCN(CC)C(=O)/C=C/c1c(-c2ccc(F)cc2)nc2sc(C(F)(F)F)nn12 [Example 0363]
–,4.23,–,CCC(CC)NC(=O)/C=C/c1c(-c2ccc(Cl)cc2)nc2sc(C(F)(F)F)nn12 [Example 0064]
–,3.77,–,"CC(NC(=O)/C=C/c1c(-c2ccccc2Cl)nc2sc(C(F)(F)F)nn12)C(F)(F)F (single isomer, unassigned) [Example 0185]"
3.63,–,–,O=C(/C=C/c1c(-c2ccc(F)cc2)nc2sc(C(F)(F)F)nn12)NC1CCCC1 [Example 0306]
3.33,–,–,O=C(/C=C/c1c(-c2ccc(F)cc2)nc2sc(C(F)(F)F)nn12)NCC1CC1 [Example 0308]
–,–,3.03,COc1ccc(-c2nc3sc(C(F)(F)F)nn3c2/C=C/C(=O)NC2CCC2)cc1OC [Example 0657]

Physical data: log P,Physical data (logP),Physical data: logP,SMILES
–,4.46,–,O=C(/C=C/c1c(-c2cccc(Cl)c2)nc2sc(C(F)(F)F)nn12)NC1CCCCC1 [Example 0085]
–,4.23,–,CC(C)(C)NC(=O)/C=C/c1c(-c2ccc(Cl)cc2)nc2sc(C(F)(F)F)nn12 [Example 0009]
–,3.7,–,O=C(/C=C/c1c(-c2ccccc2Cl)nc2sc(C(F)(F)F)nn12)NCc1ccc(F)cc1 [Example 0191]
–,–,3.29,COc1ccc(-c2nc3sc(C(F)(F)F)nn3c2/C=C/C(=O)NC(C)C(F)(F)F)cc1OC (centres unmarked) [Example 0669]
–,3.85,–,O=C(/C=C/c1c(-c2cccc(Cl)c2)nc2sc(C(F)(F)F)nn12)NC1CCC1 [Example 0083]
–,4.46,–,O=C(O)/C=C/c1c(-c2ccc(-c3ccc(OC(F)(F)F)cc3)cc2)nc2sc(C(F)(F)F)nn12 [VA123]
–,–,3.5,CCCC(C)NC(=O)/C=C/c1c(-c2ccc(OC)c(OC)c2)nc2sc(C(F)(F)F)nn12 (centres unmarked) [Example 0662]
–,3.46,–,COCC(C)NC(=O)/C=C/c1c(-c2cccc(Cl)c2)nc2sc(C(F)(F)F)nn12 (centres unmarked) [Example 0089]
–,–,3.89,CC(C)C(NC(=O)C=Cc1c(-c2ccc(Cl)nc2)nc2sc(C(F)(F)F)nn12)C(F)(F)F (centres unmarked) [Example 0936]
–,4.27,–,CC(C)(C)NC(=O)/C=C/c1c(-c2cccc(Cl)c2)nc2sc(C(F)(F)F)nn12 [Example 0080]
–,–,3.79,CCN(CC)C(=O)/C=C/c1c(-c2ccc(F)cc2Cl)nc2sc(C(F)(F)F)nn12 [Example 0644]
–,4.82,–,CCC(NC(=O)C=Cc1c(-c2ccccc2Cl)nc2sc(C(F)(F)F)nn12)C1CCCCC1 (centres unmarked) [Example 0196]
2.95,–,–,O=C(/C=C/c1c(-c2ccc(F)cc2)nc2sc(C(F)(F)F)nn12)NC1CC1 [Example 0304]
2.45,–,–,CC(NC(=O)/C=C/c1c(-c2ccc(F)cc2)nc2sc(C(F)(F)F)nn12)c1ccccn1 (centres unmarked) [Example 0345]
3.68,–,–,O=C(/C=C/c1c(-c2ccc(Cl)cc2Cl)nc2sc(C(F)(F)F)nn12)NOCC1CC1 [Example 0563]
–,4.26,–,O=C(O)/C=C/c1c(-c2ccc(-c3ccc(Cl)cc3)cc2)nc2sc(C(F)(F)F)nn12 [VA121]
3.55,–,–,CC(C)(C)NC(=O)/C=C/c1c(-c2ccccc2F)nc2sc(C(F)(F)F)nn12 [Example 0444]

# Same assay, conditions: HPLC gradient method, acetonitrile/0.1% strength aqueous phosphoric acid or formic acid; preparation examples; read-out: log P
row,chromatographic logP,SMILES
1,3.91,"CSC[C@H](C)NC(=O)/C=C/c1c(-c2ccc(Cl)cc2Cl)nc2sc(C(F)(F)F)nn12 [Example 0001, (2E)-3-[6-(2,4-Dichlorophenyl)-2-(trifluoromethyl)imidazo[2,1-b][1,3,4]thiadiazol-5-yl]-N-[(1S)-1-methyl-2-(methylthio)ethyl]acrylamide]"
